According to publication PMC8121805, “Discovery of first-in-class inhibitors of ASH1L histone methyltransferase with anti-leukemic activity” (Nature Communications, 2021):
Where “and” joins values, the source holds several entries; their conditions need not be identical. Identical values can stand only once.

Key:
[1] = target: ASH1L SET domain (2069–2288) (Homo sapiens, UniProt Q9NR48); test: Isothermal titration calorimetry (ITC); details: for kcal/mole of injectant: ITC isotherm
Method: All samples were extensively degassed by vacuum aspiration for 20 min prior to measurements. […] All titration data were analyzed with a single-site fitting model using Origin 7.0.

[2] = target: ASH1L (amino acids 2046–2330) (Homo sapiens, UniProt Q9NR48); test: Histone methyltransferase (HMT) assay; details: for IC50: IC50, HMT assay with nucleosomes as substrate, mean ± s.d. from two independent experiments
Method: The mixtures of ASH1L and compounds were incubated at room temperature for 1 h. […] The reaction was continued for 1 h at room temperature, then quenched by addition of 10% Trichloroacetic acid (TCA) and then transferred to 96-well filter plates (Millipore sigma, MSFBN6B), washed twice with 10% TCA and then once with 200-proof ethanol. After extensive drying, 70 µL of Microscint-O scintillant (PerkinElmer) was added and counts per minute (CPM) were measured using a MicroBeta microplate counter (PerkinElmer). Titration curves were plotted using Prism (GraphPad Prism 8.0.0.) and IC50 values were calculated.

MOLM13 cells = test: MTT cell viability assay; format: cell-based, human; details: MTT, 7 days
Method: (§1) FBS and 1% penicillin/streptomycin. […] Media was changed on day 3 or 4 and compounds were resupplied. […] Cell suspensions (100 μL) were transferred to the 96-well plates for each sample in quadruplicate at the time of media change. At day 7, 10 µL of MTT reagent (M6494, Molecular Probes™) was added to each well of the 96 well plate and incubated at 37 °C for 4 h. The formazan was then solubilized by adding 100 µL acidified 10% SDS solution and incubated at 37 °C overnight. Plates were read for absorbance at 570 nm using a PHERAstar BMG microplate reader. The experiments were performed two times in quadruplicates with calculation of mean and SD for each condition. Data were analyzed in Prism 8.0.0 to obtain GI50 values.
(§2) Supplementary Figure 7. […] (a)
(§3) Titration curves from the MTT cell viability assay performed after 4, 7, and 11 (or 10) days of
(§4) Titration curves from the MTT cell viability assay performed after 7 days of treatment of KOPN8 ,
(§5) MOLM13 and MV4;11 cell lines harboring MLL1 translocation (MLL1-r) or K562 cell line (non-
(§6) Representative graphs are shown
(§7) from two independent MTT experiments performed for each cell line.

MV4;11 cells = test: MTT cell viability assay; format: cell-based, human; details: MTT, 7 days
Method: as §1, §2, §3, §4, §5, §6, §7

[3] = tested on: MLL leukemia cells (MV4;11, MOLM13, KOPN8, RS4;11); test: MTT cell viability assay, MLL leukemia cells as a group; format: cell-based, human; details: Homo sapiens, MLL leukemia cells
Method: Human leukemia cells K562, MV4;11 and RS4;11 (purchased from ATCC) and KOPN8, MOLM13 (purchased from DSMZ) were cultured in RPMI 1640 (Invitrogen) supplemented with 10% heat inactivated (h.i.) FBS and 1% penicillin/streptomycin (Invitrogen). SET2 cells (purchased from DSMZ) were cultured in RPMI 1640 supplemented with 20% h.i. FBS and 1% penicillin/streptomycin. Cells were plated at 1 × 10^5 to 2 × 10^5 cells/mL depending on cell line and treated with 0.25% DMSO or varying concentrations of compounds and incubated at 37 °C, 5% CO2 incubator for 7 days. Media was changed on day 3 or 4 and compounds were resupplied. […] Cell suspensions (100 μL) were transferred to the 96-well plates for each sample in quadruplicate at the time of media change. At day 7, 10 µL of MTT reagent (M6494, Molecular Probes™) was added to each well of the 96 well plate and incubated at 37 °C for 4 h. The formazan was then solubilized by adding 100 µL acidified 10% SDS solution and incubated at 37 °C overnight. Plates were read for absorbance at 570 nm using a PHERAstar BMG microplate reader. The experiments were performed two times in quadruplicates with calculation of mean and SD for each condition. Data were analyzed in Prism 8.0.0 to obtain GI50 values.
Supplementary Figure 4. Cell viability assay for AS-6 in MLL leukemia cell lines. Titration curves from the MTT cell viability assay performed after 7 days of treatment of human MLL1- […]
replicates. Representative graphs are shown from two independent MTT experiments performed […]
as §2
Titration curves from the MTT cell viability assay performed after 4, 7, and 11 (or 10) days of […]
Titration curves from the MTT cell viability assay performed after 7 days of treatment of KOPN8 , MOLM13 and MV4;11 cell lines harboring MLL1 translocation (MLL1-r) or K562 cell line (non- […]
Representative graphs are shown from two independent MTT experiments performed for each cell line. GI50 values correspond to […]

[4] = Log[compound] (M) -5.30642 (4: -5.30643)

In the case of NCc1ccc2c(-c3cccc(C(N)=S)c3)cn(CCO)c2c1 [AS-5], the Kd [1] is reported as 6.2 µM, the “N (stoichiometry of binding)” value ([1]; ITC) is reported as 1.1 and the kcal/mole of injectant ([1]; ASH1L-AS-5 molar ratio 0.12083) is reported as -11648.3 kcal/mol. It also gave a kcal/mole of injectant ([1]; ASH1L-AS-5 molar ratio 0.18186) of -13231.7 kcal/mol, a kcal/mole of injectant ([1]; ASH1L-AS-5 molar ratio 0.2433) of -11678.6 kcal/mol and a kcal/mole of injectant ([1]; ASH1L-AS-5 molar ratio 0.30515) of -11475.1 kcal/mol. It also gave a kcal/mole of injectant ([1]; ASH1L-AS-5 molar ratio 0.36741) of -11317.2 kcal/mol, a kcal/mole of injectant ([1]; ASH1L-AS-5 molar ratio 0.43008) of -10998.9 kcal/mol and a kcal/mole of injectant ([1]; ASH1L-AS-5 molar ratio 0.49316) of -10679.7 kcal/mol. The kcal/mole of injectant ([1]; ASH1L-AS-5 molar ratio 0.55666) was -10389.6 kcal/mol, the kcal/mole of injectant ([1]; ASH1L-AS-5 molar ratio 0.62056) was -10042.7 kcal/mol and the kcal/mole of injectant ([1]; ASH1L-AS-5 molar ratio 0.68487) was -9579.7 kcal/mol. It also gave a kcal/mole of injectant ([1]; ASH1L-AS-5 molar ratio 0.7496) of -9123.74 kcal/mol, a kcal/mole of injectant ([1]; ASH1L-AS-5 molar ratio 0.81473) of -8548.86 kcal/mol and a kcal/mole of injectant ([1]; ASH1L-AS-5 molar ratio 0.88027) of -7938.47 kcal/mol. The kcal/mole of injectant ([1]; ASH1L-AS-5 molar ratio 0.94623) was -7340.59 kcal/mol, the kcal/mole of injectant ([1]; ASH1L-AS-5 molar ratio 1.0126) was -6928.78 kcal/mol and the kcal/mole of injectant ([1]; ASH1L-AS-5 molar ratio 1.07937) was -5852.59 kcal/mol. The kcal/mole of injectant ([1]; ASH1L-AS-5 molar ratio 1.14656) was -5058.91 kcal/mol, the kcal/mole of injectant ([1]; ASH1L-AS-5 molar ratio 1.21416) was -4429.92 kcal/mol and the kcal/mole of injectant ([1]; ASH1L-AS-5 molar ratio 1.28216) was -3902.54 kcal/mol. For the same molecule, the kcal/mole of injectant ([1]; ASH1L-AS-5 molar ratio 1.35058) was -3390.49 kcal/mol, the kcal/mole of injectant ([1]; ASH1L-AS-5 molar ratio 1.41941) was -2944.08 kcal/mol and the kcal/mole of injectant ([1]; ASH1L-AS-5 molar ratio 1.48865) was -2536.04 kcal/mol. The kcal/mole of injectant ([1]; ASH1L-AS-5 molar ratio 1.5583) was -2250.86 kcal/mol, the kcal/mole of injectant ([1]; ASH1L-AS-5 molar ratio 1.62836) was -1941.24 kcal/mol and the kcal/mole of injectant ([1]; ASH1L-AS-5 molar ratio 1.69883) was -1790.53 kcal/mol. The kcal/mole of injectant ([1]; ASH1L-AS-5 molar ratio 1.76971) was -1545.36 kcal/mol, the kcal/mole of injectant ([1]; ASH1L-AS-5 molar ratio 1.841) was -1413.63 kcal/mol and the kcal/mole of injectant ([1]; ASH1L-AS-5 molar ratio 1.9127) was -1226.06 kcal/mol. For the same molecule, the “improvement of the activity versus the original fragment hit” value [2] was “over 200 fold”, the IC50 [2] was 4 µM and the “% activity” value ([2]; Log[compound] (M) -3.69897) was 2.662% and 1.923%. The “% activity” value ([2]; Log[compound] (M) -4.17609) was 6.814% and 8.134%, the “% activity” value ([2]; Log[compound] (M) -4.65321) was 17.9312% and 20.7044% and the “% activity” value ([2]; Log[compound] (M) -5.13033) was 34.0137% and 31.5644%. For the same molecule, the “% activity” value ([2]; Log[compound] (M) -5.60746) was 45.8867% and 60.6988%, the “% activity” value ([2]; Log[compound] (M) -6.08458) was 80.7749% and 70.6538% and the “% activity” value ([2]; Log[compound] (M) -6.5617) was 92.8804% and 81.5471%. For the same molecule, the “% activity” value ([2]; Log[compound] (M) -7.03882) was 105.285% and 87.6496%.
With CS(=O)(=O)N1CCC(n2cc(-c3cccc(C(N)=S)c3)c3ccc(CNC(=O)Cc4c[nH]cn4)cc32)CC1 [AS-6] the “% activity MOLM13” value (MOLM13 cells; log[compound] -4.30103) was 44.6695% and 48.1072% and 45.3243%, the “% activity MOLM13” value (MOLM13 cells; log[compound] -4.60206) was 58.0929% and 58.2566% and 58.584% and 59.3207% and the “% activity MOLM13” value (MOLM13 cells; log[compound] -4.90309) was 66.769% and 64.8864% and 66.8508%. For the same molecule, the “% activity MOLM13” value (MOLM13 cells; log[compound] -5.20412) was 75.8543% and 77.8187% and 79.7831% and 79.8649%, the “% activity MOLM13” value (MOLM13 cells; log[compound] -5.50515) was 91.8969% and 80.7653% and 85.3489% and 88.2955% and the “% activity MOLM13” value (MOLM13 cells; log[compound] -5.80618) was 93.7794% and 90.9965% and 88.7047% and 81.3382%. For the same molecule, the “% activity MOLM13” value (MOLM13 cells; log[compound] -6.10721) was 102.456% and 101.555% and 98.1993% and 97.7901%, the “% activity MV4;11” value (MV4;11 cells; log[compound] -4.30103) was 54.5576% and 57.6227% and 55.8763% and 56.7674% and the “% activity MV4;11” value (MV4;11 cells; log[compound] -4.60206) was 56.8386% and 61.0443% and 58.6207% and 61.2225%. The “% activity MV4;11” value (MV4;11 cells; log[compound] -4.90309) was 61.2938% and 67.4597% and 60.9374%, the “% activity MV4;11” value (MV4;11 cells; log[compound] -5.20412) was 76.1205% and 82.5002% and 82.4289% and 79.6846% and the “% activity MV4;11” value (MV4;11 cells; log[compound] -5.50515) was 94.9746% and 100.606% and 92.9787% and 93.7272%. For the same molecule, the “% activity MV4;11” value (MV4;11 cells; log[compound] -5.80618) was 95.5805% and 97.9685% and 95.0102% and 103.208%, the “% activity MV4;11” value (MV4;11 cells; log[compound] -6.10721) was 95.9013% and 98.3962% and 101.354% and 104.348% and the GI50 [3] was roughly 50 µM.
For NC(=S)c1cccc(-c2c[nH]c3ccccc23)c1 [compound 2], the IC50 [2] was 50 µM and 50.5 µM, the “% activity” value ([2]; Log[compound] (M) -2.92082) was -0.3683% and -0.3506% and the “% activity” value ([2]; Log[compound] (M) -3.39794) was 16.0357% and 15.8766%. For the same molecule, the “% activity” value ([2]; Log[compound] (M) -3.87506) was 38.4321% and 41.7641%, the “% activity” value ([2]; Log[compound] (M) -4.35218) was 49.8512% and 57.5848% and the “% activity” value ([2]; Log[compound] (M) -4.8293) was 59.6441% and 71.2665%. For the same molecule, the “% activity” value [2, 4] was 79.3978% and 82.615%, the “% activity” value ([2]; Log[compound] (M) -5.78355) was 85.6112% and 97.322% and the “% activity” value ([2]; Log[compound] (M) -6.26067) was 88.298% and 98.5328%.
For NC(=S)c1cccc(-c2cn(CCO)c3ccccc23)c1 [compound 3], the IC50 [2] was 15 µM, the “% activity” value ([2]; Log[compound] (M) -3.69897) was 9.186% and 9.699% and the “% activity” value ([2]; Log[compound] (M) -4.17609) was 18.9348% and 13.291%. For the same molecule, the “% activity” value ([2]; Log[compound] (M) -4.65321) was 40.9235% and 30.2223%, the “% activity” value ([2]; Log[compound] (M) -5.13033) was 68.7027% and 45.0281% and the “% activity” value ([2]; Log[compound] (M) -5.60746) was 106.01% and 80.1368%. The “% activity” value ([2]; Log[compound] (M) -6.08458) was 97.0728% and 88.0528% and the “% activity” value ([2]; Log[compound] (M) -6.5617) was 107.183% and 116.125%.
For NCc1ccc2c(-c3cccc(C(N)=S)c3)c[nH]c2c1 [compound 4], the IC50 [2] was 23 µM and 23.5 µM, the “% activity” value ([2]; Log[compound] (M) -3.39794) was 6.033% and 2.5275% and the “% activity” value ([2]; Log[compound] (M) -3.87506) was 27.0096% and 20.8578%. For the same molecule, the “% activity” value ([2]; Log[compound] (M) -4.35218) was 40.1717% and 36.6844%, the “% activity” value ([2]; Log[compound] (M) -4.8293) was 67.3184% and 49.0775% and the “% activity” value [2, 4] was 79.0319% and 80.9812%. The “% activity” value ([2]; Log[compound] (M) -5.78355) was 102.423% and 86.0958%, the “% activity” value ([2]; Log[compound] (M) -6.26067) was 109.022% and 106.93% and the “% activity” value ([2]; Log[compound] (M) -6.73779) was 106.089% and 90.3699%.
